{"source": "patent US20240043473A1", "about": "“NOOTROPIC PEPTIDES FOR TREATING LYSOSOMAL STORAGE DISEASES” (Phoenix Nest Inc., priority 2021, published 2024)", "key": {"[1]": {"system": "hippocampus CA1 pyramidal cells in hippocampal slices from Hgsnat^Geo and Hgsnat^P311L mice", "assay": "Evoked synaptic currents (AMPA EPSCs, NMDA EPSCs, paired pulse) by stimulating Schaffer collaterals in hippocampal slices", "format": "cell-based, mouse", "description": "Model and Developmental time points: Hippocampal slices from Hgsnat^Geo and Hgsnat^P311L mice; P14-20.\nMethod: Synaptic currents (composite glutamatergic EPSCs, AMPA EPSCs and NMDA EPSCs) were evoked by stimulating Schaffer collaterals and recordings were conducted from the hippocampus CA1 pyramidal cells in hippocampal slices from Hgsnat^Geo and Hgsnat^P311L mice. Paired pulse stimulation protocol with increasing stimulus intervals was used to identify the locus of deficit.\nAcute hippocampal slices were prepared as follows. Briefly, animals were anaesthetized deeply with isoflurane and decapitated. The brain was dissected carefully and transferred rapidly into an ice-cold (0-4° C.) solution containing the following (in mM): 250 sucrose, 2 KCl, 1.25 NaH2PO4, 26 NaHCO3, 7 MgSO4, 0.5 CaCl2 and 10 glucose, pH 7.4. The solution was oxygenated continuously with 95% O2 and 5% CO2, 330-340 mOsm/L. Transverse hippocampal slices (thickness, 300 μm) were cut using a vibratome (VT1000S; Leica Microsystems), transferred to a bath at room temperature (23° C.) with standard ACSF at pH 7.4 containing the following (in mM): 126 NaCl, 3 KCl, 1 NaH2PO^4, 25 NaHCO3, 2 MgSO4, 2 CaCl2), 10 glucose, continuously saturated with 95% 02 and 5% CO2 and allowed to recover for 1 h. During the experiments, slices were transferred to the recording chamber at physiological temperature (30-33° C.) continuously perfused with standard ACSF, as described above, at 2 ml/min. Pyramidal CA1 neurons from the hippocampus were identified visually using a 40× water immersion objective. Whole-cell patch-clamp recordings were obtained from single cells in voltage- or current-clamp mode and only 1 cell per slice was recorded to enable post-hoc identification and immunohistochemical processing. Recording pipettes (4-6 MΩ) were filled with a K-gluconate based solution for voltage-clamp recordings (in mM): 130 K-gluconate, 10 KCl, 5 diNa-phosphocreatine. 10 HEPES, 2.5 MgCl2, 0.5CaCl2,1 EGTA, 3 ATP-Tris, 0.4 GTP-Li, 0.3% biocytin, pH 7.2-7.4, 280-290 mOsm/L.\nWe further studied evoked glutamatergic EPSCs in CA1 pyramidal neurons at P14-20 by stimulating Schaffer Collateral afferents. […] The effect is aggravated at higher IPI, as both the readily releasable and reserve pools of synaptic vesicles get progressively emptied."}, "[2]": {"system": "iPSC-derived cortical neurons from MPS IIIA and MPS IIIC patients", "assay": "Synaptic protein markers and BDNF in iPSC-derived cultured cortical neurons (immunocytochemistry)", "format": "cell-based, human", "settings": "10 μM in culture; MPS IIIA and MPS IIIC patient neurons", "from_the_text": "Generation of iPSC lines MPS III patient fibroblast lines were obtained from the Coriell Institute for Medical Research (NJ, USA), or from the hospitals were the patients were diagnosed/followed with the informed consent of patient's families. The fibroblasts were propagated in Dulbecco's Modified Eagle Medium (DMEM, ThermoFisher) with 10% fetal bovine serum (FBS) and 1% Antibiotic-Antimycotic (15240062, ThermoFisher) and tested for mycoplasma. The cells were further reprogrammed into iPSCs at the CHUSJ iPSC Platform using a non-integrating CytoTune-Sendai viral reprograming kit (A16517, Thermo Fisher Scientific, MA, USA) according to the manufacture's protocol. Two colonies for each iPSC line were used for further proliferation, iPSCs were expanded and maintained on six-well plates coated with Matrigel mTeSR™ Plus medium at 37° C., in 5% CO2/5% O2 atmosphere following the medium manufacturer's protocol. […]\nInduction of cortical NPC and cortical neurons iPSCs were differentiated into cortical forebrain committed neural precursor cells (NPCs) by dual SMAD inhibition by passaging iPSCs over to poly-L-ornithine (PO)/laminin coated dishes. […] After induction for 3 weeks the cells were analyzed by ICH for the presence of neuronal markers PAX6, and TUBB3, confirmation of disease-specific enzymatic deficiencies and lysosomal storage phenotype (increased size of LAMP2+ puncta by ICH). […]"}, "[3]": {"settings": "mouse, in vivo", "protocol": "WT C57B16 4-month-old male mouse was dosed intranasally with 10 μl of 50 mM AVP6 in saline (5 μl/nostril). One hour after dosing, the mouse was anesthetized with sodium pentobarbital, and 500 μl of blood collected by cardiac puncture. Mouse was then sacrificed by cranial dislodgement and its brain and visceral organs extracted. Tissues and blood plasma were homogenized in acetonitrile (1:4, tissue/solvent ratio). The extracts were spiked with heavy isotope-labelled (Phe U-^13C9; U-^15N) AVP6 peptide as an internal standard, and analyzed by targeted LC-MS/MS, using parallel reaction monitoring on Orbitrap Exploris 480 instrument.\nPeptide pharmaco-kinetics was determined by evaluation of AVP6 levels in CNS, blood and peripheral tissues at different time points (1-48 h) after intranasal delivery in the WT mice. The entire mouse brain was cut in four sections, rostral to caudal and assessed for biodistribution of AVP6 by targeted LC-MS/MS using parallel reaction monitoring. For quantification, samples were spiked with isotopically labeled (Phe U-^13C9; U-^15N) AVP6 peptide as an internal standard. Peptide levels were also measured in peripheral (liver, kidney, spleen) tissues and in blood to provide insights into peptide biodistribution and degradation rates."}, "[4]": {"settings": "10 μM bath application, P14-20, Hgsnat^P311L (P304L) slices"}}, "note": "Entries after “also recorded” stand apart in the source; their conditions may differ. No end group written: not given here."}
{"substance": "AVP6: N-terminally acetylated Semax, a nootropic peptide having the amino acid sequence of MEHFPGP (SEQ ID NO:1) (Ac-MEHFPGP)", "values": [{"measurement": "evoked AMPA current deficits", "setting": "[1]; [4]", "result": "partially recovered deficits in AMPA currents; also recorded: not in AVP6-treated brain slices"}, {"measurement": "evoked NMDA current deficits", "setting": "[1]; [4]", "result": "not in AVP6-treated brain slices"}, {"measurement": "paired pulse (PPF/PPR) deficits at lower inter-pulse intervals", "setting": "[1]; 10 μM, IPI 100-200 ms Hgsnat^Geo, 100-300 ms Hgsnat^P311L", "result": "significantly recovered PPF deficits; also recorded: partially rescued deficits in the paired pulse stimulation; also recorded: is restored by treatment with AVP6"}, {"measurement": "paired pulse (PPF) deficits at higher inter-pulse intervals", "setting": "[1]; 10 μM, IPI 400 and 500 ms", "result": "not at higher (400 and 500 ms) IPI"}, {"measurement": "recording lost (suggesting neurotoxicity)", "setting": "[1]; 50 μM", "result": "5 of 11"}, {"measurement": "PPF deficits at 100, 200, 300 and 400 ms IPI", "setting": "[1]; 50 μM, Hgsnat^P304L slices", "result": "PPF deficits were rescued"}, {"measurement": "levels of BDNF+, VGLUT1+ and PSD-95+ puncta", "setting": "[2]", "result": "significantly increased"}, {"measurement": "levels of VGLUT1+, PSD-95+, SYN1+ and BDNF+ puncta", "setting": "[2]", "result": "rescues reduced levels of synaptic markers; also recorded: significantly increased"}, {"measurement": "time the peptide level in the brain remained above the estimated acting concentration", "setting": "[3]", "result": 17, "unit": "h"}]}
